Data on 2 molecules can be found in publication doi:10.1101/2024.02.15.580468v1, “Morphing Cholinesterase Inhibitor Amiridine into Multipotent Drugs for the Treatment of Alzheimer’s Disease” (biorxiv, 2024).

Each structure is given as a SMILES string. Read-outs that look alike come from different tables or passages of the source.

Data set [1] in a line: in vitro. The arrangement: MTT viability assay, undifferentiated SH-SY5Y cells. The following applies: human, undifferentiated sh-sy5y cells, read-out: SH-SY5Y IC50. As to the method:
(§1) The cytotoxic profile of 5–7 was carried through the use of the MTT (3-(4,5-dimethylthiazol-2-yl)-2,5-diphenyltetrazolium bromide) assay on human neuroblastoma (SH-SY5Y) and hepatocellular carcinoma (HepG2) cell lines, following established protocols. The cytotoxicity was assessed on SH-SY5Y cells in undifferentiated and in differentiated form. The data obtained from the measurements on the undifferentiated SH-SY5Y and HepG2 cells are summarized in Table 1 for 5c-d, 7c and 7g, as well as for the reference compounds amiridine hydrochloride and THA. Additional data can be found in Supplementary Information (Table S2 and Fig. S1). The both cell lines were cultured according to ECACC recommended conditions and seeded into 96-well plates in 100 µL and density of 8000 per well. For evaluation of cytotoxicity of the differentiated form the SH-SY5Y cells also underwent 9-day differentiation protocol into mature neurons according to Riegerová et al .. The tested compounds were dissolved in DMSO (Sigma Aldrich) or in phosphate buffer saline (PBS, Sigma Aldrich) and subsequently in the growth medium - high glucose Dulbecco’s Modified Eagle’s medium (DMEM; Sigma-Aldrich, D6429). […] Then, the differentiated SH-SY5Y cells were treated with concentrations corresponding to IC50 values obtained from the cytotoxicity measurement using undifferentiated SH-SY5Y cells. Cells were exposed to a tested compound for 24 h. Then the medium was replaced by a medium containing 10 μM of MTT and cells were allowed to produce formazan for another approximately 3 h under surveillance. Thereafter, medium was aspirated and purple crystals of MTT formazan were dissolved in 100 μL DMSO under shaking. Cell viability was assessed spectrophotometrically by the amount of formazan produced. Absorbance was measured at 570 nm with 650 nm reference wavelength on Spark (Tecan Group Ltd, Switzerland). The IC50 value was then calculated from the control-subtracted triplicates using non-linear regression (four parameters) of GraphPad Prism 9 software. Final IC50 and SEM values were obtained as a mean of three independent measurements.

Data set [2] is described as follows: in vitro. The following applies: human, hepg2 cells; read-out: HepG2 IC50. The arrangement: MTT viability assay, HepG2 cells. As to the method: as §1
Data set [3] has as its target T1, hAChE (human recombinant acetylcholinesterase) (Homo sapiens, UniProt P22303).
T1 construct: gene ACHE; recombinant enzyme, purchased from Sigma-Aldrich
Briefly: biochemical. Also on record: modified Ellman assay, cholinesterase activity, absorbance at 412 nm. The method, then:
(§2) The inhibitory activities of 5–7 and all the reference compounds were determined using modified Ellman’s method against human recombinant AChE (hAChE, E.C. 3.1.1.7, purchased from Sigma-Aldrich, Prague, Czech Republic) and human plasmatic BChE (hBChE, E.C. 3.1.1.8, purchased from Sigma-Aldrich, Prague, Czech Republic). The results are expressed as IC50 (the concentration of the compound that is required to reduce 50% of cholinesterase activity). Other used compounds – phosphate buffer solution (PBS, pH = 7.4), 5,5’-dithio-bis(2-nitrobenzoic) acid (Ellman’s reagent, DTNB), acetylthiocholine (ATCh) and butyrylthiocholine (BTCh) were also commercially available and were purchased from Sigma-Aldrich (Prague, Czech Republic). During the measurement, 96-well microplates from polystyrene (ThermoFisher Scientific, Waltham, MA, USA) were used. The solutions of corresponding enzyme in PBS were prepared up to final activity 0.002 U/µL. The assay medium (100 µL) consisted of cholinesterase (10 µL), DTNB (20 µL of 0.01 M solution) and PBS (40 µL of 0.1 M solution). The solutions of the tested compounds (10 µL of different concentrations) were pre- incubated for 5 minutes in the assay medium and then solution of substrate (20 µL of 0.01 M ATCh or BTCh iodide solution) was added to initiate the reaction. The increase of absorbance was measured at 412 nm using Multimode microplate reader Synergy 2 (BioTek Inc., Winooski, VT, USA). For the calculation of the resulting measured activity (the percentage of inhibition I) following formula was used: [drawing 1] where ΔAi indicates absorbance change provided by adequate enzyme exposed to corresponding inhibitor and ΔA0 indicates absorbance change when a solution of PBS was added instead of a solution of inhibitor. Software Microsoft Excel (Redmont, WA, USA) and GraphPad Prism version 5.02 for Windows (GraphPad Software, San Diego, CA, USA) were used for the statistical data evaluation. ChEs are enzymes responsible for the hydrolysis and metabolism of various endogenous and exogenous substrates, that are broadly studied in association with disease conditions like myasthenia gravis or AD. The primary attention in the development of AD drugs has been paid to AChE inhibitors. Nevertheless, there is growing interest in nonselective or BChE-selective inhibitors due to the compensatory role of BChE when AChE levels are depleted during the progression of AD [23]. Selective BChE inhibitors may be beneficial for patients in moderate-to-severe stages of AD [23, 24]. […] Accordingly, we assessed the inhibition activities of these novel compounds against human recombinant AChE (hAChE) and human serum BChE (hBChE) following a modified spectrophotometric protocol developed by Ellman et al.. […] Complete data are available in the Supplementary Information (Table S1), including the inhibition percentages for all derivatives. Amiridine hydrochloride (amiridine.HCl) and tacrine (THA) were used as reference compounds. […] Only a superficial structure-activity relationship for AChE inhibition can be drawn from the obtained data. […] The presence of any substituent on the benzothiazole core enhanced anti-AChE activity, with the best-tolerated position for the substituent being 6 for derivatives with halogen atoms (7b-d with bromine or 7g-h with [compound left out]. h

Data set [4] deals with T2, hBChE (human serum / plasmatic butyrylcholinesterase) (Homo sapiens, UniProt P06276).
T2 construct: gene BCHE; native enzyme from human plasma/serum, purchased from Sigma-Aldrich
Briefly: biochemical. Also on record: modified Ellman assay, cholinesterase activity, absorbance at 412 nm. The method, then: as §2

A short description of data set [5]: in vitro. The arrangement: PAMPA blood-brain barrier permeability, effective permeability Pe. The following applies: PAMPA-BBB Pe. The text has this: page 4 / Table S1. Inhibition activities of 5–7 and reference compounds (amiridine hydrochloride and THA). hAChE ± SEM^a hBChE ± SEM^a / Pe (10^-6 cm.s^-1)
A short description of data set [6]: in vitro. The arrangement: PAMPA blood-brain barrier permeability, effective permeability Pe. The following applies: PAMPA-BBB Pe. An excerpt: page 5 / Table S2. Cytotoxicity profiles of 5–7 on SH-SY5Y cell line and predictions to BBB penetration by PAMPA results. / Pe (10^-6 cm.s^-1)
The source holds these as a separate data set. On the technique in general: PAMPA measures passive passage across an artificial lipid membrane.

Data set [7] deals with T3, recombinant human GluN1/GluN2B NMDA receptor (GluN1-4a/GluN2B) (Homo sapiens, UniProt Q05586+Q13224).
T3 construct: gene GRIN1; GluN1-4a and GluN2B co-expressed with GFP in HEK293 cells
Nature of the data set: whole-cell patch clamp, HEK293. It counts as cell-based. The following applies: -60 mV, 1 mM L-glutamate, 100 µM glycine, pH 7.3, steady state; voltage-dependent. The text has this: whole-cell patch clamp, HEK293 on recombinant human GluN1/GluN2B NMDA receptor (GluN1-4a/GluN2B)
In general terms: In patch-clamp work, channel activity is measured electrically.

T2 sequence (P06276 29-602): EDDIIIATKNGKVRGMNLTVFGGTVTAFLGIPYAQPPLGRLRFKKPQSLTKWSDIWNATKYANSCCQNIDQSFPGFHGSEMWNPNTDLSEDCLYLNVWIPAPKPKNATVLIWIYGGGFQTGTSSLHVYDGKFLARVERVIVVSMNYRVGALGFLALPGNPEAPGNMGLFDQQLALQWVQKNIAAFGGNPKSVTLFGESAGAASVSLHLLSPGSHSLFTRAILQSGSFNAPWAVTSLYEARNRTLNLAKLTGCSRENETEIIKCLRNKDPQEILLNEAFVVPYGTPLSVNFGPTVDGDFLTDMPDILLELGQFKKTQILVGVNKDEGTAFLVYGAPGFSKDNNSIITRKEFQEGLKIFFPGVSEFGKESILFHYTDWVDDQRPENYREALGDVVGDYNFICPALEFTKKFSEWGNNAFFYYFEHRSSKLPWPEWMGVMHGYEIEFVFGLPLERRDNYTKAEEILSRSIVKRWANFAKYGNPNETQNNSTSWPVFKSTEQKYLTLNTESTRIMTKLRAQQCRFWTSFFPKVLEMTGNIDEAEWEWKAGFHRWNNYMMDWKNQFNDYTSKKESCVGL
T1 sequence (P22303 32-614): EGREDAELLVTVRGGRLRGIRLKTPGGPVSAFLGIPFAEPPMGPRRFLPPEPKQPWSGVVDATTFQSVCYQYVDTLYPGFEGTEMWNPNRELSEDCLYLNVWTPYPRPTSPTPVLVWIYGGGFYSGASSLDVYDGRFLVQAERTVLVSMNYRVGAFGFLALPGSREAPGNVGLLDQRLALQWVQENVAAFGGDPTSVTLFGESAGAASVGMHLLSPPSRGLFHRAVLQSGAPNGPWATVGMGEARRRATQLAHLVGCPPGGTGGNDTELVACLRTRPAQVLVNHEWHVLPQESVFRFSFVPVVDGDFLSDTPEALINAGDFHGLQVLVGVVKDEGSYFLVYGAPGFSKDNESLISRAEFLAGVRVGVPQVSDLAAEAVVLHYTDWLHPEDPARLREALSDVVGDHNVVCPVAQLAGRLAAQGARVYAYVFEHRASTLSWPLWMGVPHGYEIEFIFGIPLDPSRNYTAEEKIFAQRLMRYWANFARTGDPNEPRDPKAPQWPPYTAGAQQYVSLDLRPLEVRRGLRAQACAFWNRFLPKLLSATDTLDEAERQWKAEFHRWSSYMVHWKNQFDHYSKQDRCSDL
T3 sequence (Q13224 27-1484, other chains not shown): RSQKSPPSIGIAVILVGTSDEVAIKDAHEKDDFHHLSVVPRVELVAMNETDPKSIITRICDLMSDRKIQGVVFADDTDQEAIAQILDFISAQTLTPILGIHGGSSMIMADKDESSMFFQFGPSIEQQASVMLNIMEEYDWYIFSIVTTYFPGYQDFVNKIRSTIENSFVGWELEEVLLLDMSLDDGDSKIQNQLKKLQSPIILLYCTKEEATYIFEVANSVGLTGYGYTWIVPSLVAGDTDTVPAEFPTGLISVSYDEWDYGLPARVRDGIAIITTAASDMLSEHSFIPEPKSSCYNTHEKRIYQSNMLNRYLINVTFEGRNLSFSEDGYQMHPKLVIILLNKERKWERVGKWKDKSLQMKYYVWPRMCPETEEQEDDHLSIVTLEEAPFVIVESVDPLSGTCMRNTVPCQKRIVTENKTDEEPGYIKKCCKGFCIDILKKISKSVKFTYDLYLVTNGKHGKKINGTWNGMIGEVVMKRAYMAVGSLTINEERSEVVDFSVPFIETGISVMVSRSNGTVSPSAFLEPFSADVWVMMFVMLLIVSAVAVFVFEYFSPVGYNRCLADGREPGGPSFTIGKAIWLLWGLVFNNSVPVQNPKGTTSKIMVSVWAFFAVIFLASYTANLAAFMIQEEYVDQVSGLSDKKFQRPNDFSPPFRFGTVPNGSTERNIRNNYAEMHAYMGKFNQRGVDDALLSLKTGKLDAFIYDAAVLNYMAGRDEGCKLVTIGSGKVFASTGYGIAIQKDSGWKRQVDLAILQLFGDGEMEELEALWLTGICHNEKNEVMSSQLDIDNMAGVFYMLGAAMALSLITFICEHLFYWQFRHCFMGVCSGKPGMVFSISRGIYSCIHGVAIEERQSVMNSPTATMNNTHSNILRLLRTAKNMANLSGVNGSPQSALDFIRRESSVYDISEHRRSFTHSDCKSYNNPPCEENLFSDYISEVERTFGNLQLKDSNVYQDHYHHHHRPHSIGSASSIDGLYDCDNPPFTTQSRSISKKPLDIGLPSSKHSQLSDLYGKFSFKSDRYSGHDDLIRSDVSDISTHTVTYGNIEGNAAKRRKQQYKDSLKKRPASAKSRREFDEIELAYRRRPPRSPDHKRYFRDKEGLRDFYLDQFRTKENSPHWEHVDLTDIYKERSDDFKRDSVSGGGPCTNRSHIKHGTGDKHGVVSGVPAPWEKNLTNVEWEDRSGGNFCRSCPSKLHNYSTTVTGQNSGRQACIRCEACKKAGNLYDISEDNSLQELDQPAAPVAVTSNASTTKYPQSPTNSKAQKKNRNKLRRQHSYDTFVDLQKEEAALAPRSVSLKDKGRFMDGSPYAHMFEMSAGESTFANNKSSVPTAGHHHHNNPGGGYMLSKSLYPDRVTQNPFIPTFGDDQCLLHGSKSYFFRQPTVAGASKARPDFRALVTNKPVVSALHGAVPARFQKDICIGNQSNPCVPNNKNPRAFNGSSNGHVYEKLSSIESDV

Broadly, the inhibition is the relative decrease from the control value, in per cent. For orientation: Papp means the rate of passage across a membrane or cell layer, normalised by area and donor concentration. As to `O=C(CNC12CC3CC(CC(C3)C1)C2)Nc1c2c(nc3c1CCC3)CCCC2` [5a], the CC50 at 24 h was 74 ± 2.8 µM in the data set “in vitro [1]” and 67.9 ± 1.12 µM in “in vitro [2]”. The figures for the inhibition at 1 µM in data set [3] and in data set [4] were 2.83 ± 0.49% and 14 ± 1.75%, respectively. For the same molecule, the Papp in the data set “in vitro [5]” was determined as 23.4 ± 1.86 ×10⁻⁶ cm/s.
As to `O=C(CNc1nc2ccc(OC(F)(F)F)cc2s1)Nc1c2c(nc3c1CCC3)CCCC2` [7m, N-{1H,2H,3H,5H,6H,7H,8H-cyclopenta[b]quinolin-9-yl}-2-{[6-(trifluoromethoxy)-1,3-benzothiazol-2-yl]amino}acetamide], the results for the CC50 at 24 h in the data set “in vitro [1]” and in “in vitro [2]” were 29.5 ± 2.3 µM and not below 200 µM, respectively. Further, in “in vitro [6]”, the Papp was 2.54 ± 0.42 ×10⁻⁶ cm/s. Further, in data set [7], the “RI (% inhibition at 30 μM)” value is recorded as 63.0 ± 2.6%. In addition, the inhibition at 1 µM is 13.3 ± 0.71% in data set [3] and 1.5 ± 0.64% in data set [4].
